Earlier results, collected in US4177261A, “Pharmaceutical composition and method of stimulating blood circulation and wound healing” (Thera Gesellschaft fur Patentverwertung mbH, priority 1977, dated 1979).
No end group written: not given here.

Settings: intra-cuticular injection

| Substance | Quantity causing vehement pain reactions |
| --- | --- |
| RPPGFSPFR [Brady kinin, (NH2) arginine-proline-proline-glycine-phenylalanine-serine-proline-phenylalanine-arginine (COOH)] | about 0.1 micrograms per 1 milliliter of solution |
| kallidin: decapeptide; Bradykinin extended at the amino end by an additional lysine radical | about 0.1 micrograms per 1 milliliter of solution |
